According to ChEMBL document CHEMBL5230135, “Peptide Ligands Specifically Targeting HER2 Receptor and the Role Played by a Synthetic Model System of the Receptor Extracellular Domain: Hypothesized Future Perspectives” (J Med Chem, 2020):
Where a SMILES comes first, the peptide text is derived from it.

Experiments:
[1] = Biodistribution in lung of BALB/c nu/nu mouse measured in organ after 1 hr; assay type: ADME, organism-based; conditions: in vivo
[2] = target: T1, Receptor tyrosine-protein kinase erbB-2 (Homo sapiens, UniProt P04626); test: Binding affinity to HER2 in human BT-474 cells assessed as dissociation constant by measuring high affinity ligand binding site by LigandTracer technique; assay type: cell-based
[3] = Biodistribution in stomach of BALB/c nu/nu mouse measured in organ after 1 hr; assay type: ADME, organism-based; conditions: in vivo
[4] = Biodistribution in kidney of BALB/c nu/nu mouse measured in organ after 1 hr; assay type: ADME, organism-based; conditions: in vivo
[5] = Biodistribution in pancreas of BALB/c nu/nu mouse measured in organ after 1 hr; assay type: ADME, organism-based; conditions: in vivo
[6] = Biodistribution in Carcass of BALB/c nu/nu mouse measured in organ after 1 hr; assay type: ADME, organism-based; conditions: in vivo
[7] = Biodistribution in bone of BALB/c nu/nu mouse measured in organ after 1 hr; assay type: ADME, organism-based, Bone element; conditions: in vivo
[8] = Biodistribution in Gastrointestinal tract of BALB/c nu/nu mouse measured in organ after 1 hr; assay type: ADME, organism-based; conditions: in vivo
[9] = Biodistribution in liver of BALB/c nu/nu mouse measured in organ after 1 hr; assay type: ADME, organism-based; conditions: in vivo
[10] = Biodistribution in brain of BALB/c nu/nu mouse measured in organ after 1 hr; assay type: ADME, organism-based; conditions: in vivo
[11] = Biodistribution in spleen of BALB/c nu/nu mouse measured in organ after 1 hr; assay type: ADME, organism-based; conditions: in vivo
[12] = target: T1, Receptor tyrosine-protein kinase erbB-2; test: Binding affinity to HER2 in human BT474 cells assessed as dissociation constant by measuring low affinity ligand binding site by LigandTracer technique; assay type: cell-based, BT-474
[13] = Biodistribution in muscle of BALB/c nu/nu mouse measured in organ after 1 hr; assay type: ADME, organism-based; conditions: in vivo

T1 sequence (P04626 whole entry): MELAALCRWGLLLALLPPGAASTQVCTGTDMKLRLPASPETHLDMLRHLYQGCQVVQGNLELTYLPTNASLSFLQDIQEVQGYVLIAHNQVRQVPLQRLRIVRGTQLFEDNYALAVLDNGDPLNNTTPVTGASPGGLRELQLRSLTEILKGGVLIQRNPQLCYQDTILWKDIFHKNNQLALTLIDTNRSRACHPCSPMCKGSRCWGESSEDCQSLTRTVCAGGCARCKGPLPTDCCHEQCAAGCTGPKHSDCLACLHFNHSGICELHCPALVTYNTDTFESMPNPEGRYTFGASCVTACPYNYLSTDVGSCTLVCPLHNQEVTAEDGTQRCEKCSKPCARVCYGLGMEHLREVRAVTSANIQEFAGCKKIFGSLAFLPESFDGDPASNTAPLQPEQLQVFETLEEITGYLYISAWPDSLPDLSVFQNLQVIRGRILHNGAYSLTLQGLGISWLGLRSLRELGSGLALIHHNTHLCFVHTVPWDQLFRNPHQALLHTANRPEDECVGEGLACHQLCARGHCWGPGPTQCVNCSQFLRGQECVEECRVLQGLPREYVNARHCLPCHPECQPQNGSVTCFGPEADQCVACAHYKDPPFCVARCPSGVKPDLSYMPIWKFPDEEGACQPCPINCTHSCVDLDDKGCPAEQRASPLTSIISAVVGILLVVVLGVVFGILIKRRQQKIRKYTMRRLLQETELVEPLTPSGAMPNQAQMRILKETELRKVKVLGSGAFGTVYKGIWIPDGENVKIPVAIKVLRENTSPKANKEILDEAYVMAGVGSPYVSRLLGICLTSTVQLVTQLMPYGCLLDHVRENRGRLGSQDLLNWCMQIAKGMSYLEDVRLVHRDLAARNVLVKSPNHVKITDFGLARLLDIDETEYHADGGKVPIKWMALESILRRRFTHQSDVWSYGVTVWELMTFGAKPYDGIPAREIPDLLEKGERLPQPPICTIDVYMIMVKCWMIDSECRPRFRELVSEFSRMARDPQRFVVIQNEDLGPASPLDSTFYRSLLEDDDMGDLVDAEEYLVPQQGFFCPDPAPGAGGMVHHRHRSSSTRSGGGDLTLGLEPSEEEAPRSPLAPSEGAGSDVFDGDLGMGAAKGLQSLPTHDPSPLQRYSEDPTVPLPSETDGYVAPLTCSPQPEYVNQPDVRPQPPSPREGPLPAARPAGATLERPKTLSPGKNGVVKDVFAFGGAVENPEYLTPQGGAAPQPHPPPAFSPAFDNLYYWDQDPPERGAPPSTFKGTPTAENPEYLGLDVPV

Drug uptake [1]: 0.06 %ID
Kd [2]: 4.9 nM
Drug uptake [3]: 0.05 %ID
Drug uptake [4]: 2 %ID
Drug uptake [5]: 0.01 %ID
Drug uptake [6]: 3.47 %ID
Drug uptake [7]: 0.01 %ID
Drug uptake [8]: 0.83 %ID
Drug uptake [9]: 0.47 %ID
Drug uptake [10]: 0 %ID
Drug uptake [11]: 0.02 %ID
Kd [12]: 103 nM
Drug uptake [13]: 0.04 %ID
Compound: CC(C)[C@H](NC(=O)[C@H](C)NC(=O)[C@@H](NC(=O)[C@H](CC(N)=O)NC(=O)[C@@H](NC(=O)[C@H](CC(=O)O)NC(=O)[C@H](CCC(N)=O)NC(=O)CN(CCN(CCN(CC(=O)O)CC(=O)O)CC(=O)O)CC(=O)O)C(C)C)[C@@H](C)O)C(=O)N[C@@H](C)C(=O)N[C@@H](Cc1c[nH]c2ccccc12)C(N)=O (HELM PEPTIDE1{[O=C(O)CN(CCN(CC(=O)O)CC(=O)O)CCN(CC(=O)O)CC(=O)[*:2]].Q.D.V.N.T.A.V.A.W.[am]}$$$$V2.0)
